{
  "source": "patent US5506264A",
  "about": "“Zinc tranexamate compounds” (Zaidan Hojin Seisan Kaihatsu Kaguki Kenkyusho, priority 1992, dated 1996)",
  "key": {"[1]": {"system": "Stomach injury with hydrochloric acid/ethanol", "test": "Anti-ulcer test (1): stomach injury with hydrochloric acid/ethanol", "format": "in vivo, Male rats of Sprague-Dawley strain", "settings": "for Suppression % / Ulcer coefficient (mm) mean ± S.E.: 50 mg/kg oral, 1 hour before hydrochloric acid/ethanol, 8 animals, * p<0.05; for Ulcer coefficient (mm) mean ± S.E.: non-treated 78.4 ± 21.1", "procedure": "Male rats of Sprague-Dawley strain (supplied by Charles-River Co., SPE) weighing 220 to 280 g were fasted for 24 hours and employed in the experiment, whereby the rats were allowed free access to water for the first 22 hours, with no water being given for the remaining 2 hours. The test compound was suspended in 0.5% aqueous carboxymethylcellulose solution and the suspension was given to the test animals at a dose of 1 ml/200 g body weight, with the solvent alone being applied as a control at the same dose. Rats were treated by oral administration of hydrochloric acid/ethanol (containing 0.15 mole hydrochloric acid solution in 80% ethanol) at a dose of 1 ml/200 g body weight and sacrificed with ether 1 hour later, and the stomachs and duodena were isolated, followed by removal of the contents from the duodena. After the cardiac orifices were ligated, 2% formalin solution was injected in 8 ml portion into the stomachs through the duodenum, and the pyloric sphincters were ligated, followed by immersion into the same solution for 10 min to perform slight fixation (hereinafter referred to as \"formalin treatment\"). The stomachs were incised along the greater curvature, and individual injuries (erosions) generated in the glandular portion of each stomach were measured in length (mm) under microscope for anatomy (10 fold magnification), with the total sum per rat of measured injury lengths being calculated. The test compound was given to the animals orally 1 hour before administration of hydrochloric acid/ethanol."}, "[2]": {"system": "Stomach injury through water-immersion constraint stress", "test": "Anti-ulcer test (2): stomach injury through water-immersion constraint stress", "format": "in vivo, Male rats of Sprague-Dawley strain", "settings": "50 mg/kg oral, immediately before stress-loading (23° C., 8 hours), 8 animals, * p<0.05; for Ulcer coefficient (mm) mean ± S.E.: non-treated 52.8 ± 9.8", "procedure": "Male rats of Sprague-Dawley strain (supplied by Charles-River Co., SPE) weighing 220 to 280 g were fasted for 24 hours and employed in the experiment, whereby the rats were allowed free access to water for the first 22 hours, with no water being given for the remaining 2 hours. The test compound was suspended in 0.5% aqueous carboxymethylcellulose solution and the suspension was given to the test animals at a dose of 1 ml/200 g body weight, with the solvent alone being applied as a control at the same dose. The rats were stress-loaded by soaking the animals placed in a stress cage of Univ. of Tokyo type up to the xiphoid in a water tank at 23° C. and they were taken out of the tank 8 hours later and sacrificed with ether. The stomachs were isolated and treated with formalin, and individual injuries formed in the glandular portion of the stomach were measured in length (mm), with the total sum per rat of the measured injury lengths being calculated. The test compound was given to the test animals orally immediately before the stress-loading."}, "Solubility in water": {"test": "Solubility in water", "format": "physicochemical"}, "mice": {"system": "mice", "test": "Acute toxicity test, oral", "settings": "3 day observation", "description": "Male ddy strain mice (weighing 23 to 26 g) used in the experiment were divided into groups each consisting of 3 heads and treated by oral administration of the test compound suspended with powdered gum arabic, followed by observation for any abnormalities over a 3 day period to find the number of dead animals."}},
  "note": "Structures can show the parent of a compound that is named as a salt.",
  "data": [
    {"molecule": "NC[C@H]1CC[C@H](C(=O)Oc2ccc(CCC(=O)O)cc2)CC1", "note": "[Cetraxate hydrochloride]", "values": [
      {"measurement": "Suppression %", "setting": "[1]", "value": 40.9, "unit": "%"},
      {"measurement": "Ulcer coefficient (mm) mean ± S.E.", "setting": "[1]", "value": "46.3 ± 7.6", "unit": "mm"},
      {"measurement": "Suppression %", "setting": "[2]", "value": 39.4, "unit": "%"},
      {"measurement": "Ulcer coefficient (mm) mean ± S.E.", "setting": "[2]", "value": "32.0 ± 8.4", "unit": "mm"}
    ]},
    {"molecule": "NC[C@H]1CC[C@H](C(=O)O)CC1", "note": "[Tranexamic acid, tranexamic acid]", "values": [
      {"measurement": "Suppression %", "setting": "[1]", "value": 10.1, "unit": "%"},
      {"measurement": "Ulcer coefficient (mm) mean ± S.E.", "setting": "[1]", "value": "70.5 ± 20.1", "unit": "mm"},
      {"measurement": "effects in the anti-ulcer tests", "setting": "[1]; conclusion in words from the test results", "value": "did not produce any marked effects"},
      {"measurement": "Suppression %", "setting": "[2]", "value": 11.9, "unit": "%"},
      {"measurement": "Ulcer coefficient (mm) mean ± S.E.", "setting": "[2]", "value": "46.5 ± 8.4", "unit": "mm"}
    ]},
    {"molecule": "L-malic acid salt of zinc tranexamate monohydrate", "values": [
      {"measurement": "amount of compound dissolving in 2 ml of water", "setting": "Solubility in water", "value": 1, "unit": "g"}
    ]},
    {"molecule": "zinc tranexamate monohydrate", "values": [
      {"measurement": "Suppression %", "setting": "[1]", "value": 81.1, "unit": "%"},
      {"measurement": "Ulcer coefficient (mm) mean ± S.E.", "setting": "[1]", "value": "14.8 ± 4.5", "unit": "mm"},
      {"measurement": "suppressory activity in the anti-ulcer test, compared with control, tranexamic acid and cetraxate hydrochloride", "setting": "[1]; summary in words of the anti-ulcer tests (Tables 1 and 2)", "value": "improved suppressory activity as compared with the control, or tranexamic acid and cetraxate hydrochloride"},
      {"measurement": "Suppression %", "setting": "[2]", "value": 57.8, "unit": "%"},
      {"measurement": "Ulcer coefficient (mm) mean ± S.E.", "setting": "[2]", "value": "22.3 ± 8.4", "unit": "mm"},
      {"measurement": "Nd/No (No. of dead animals / total No. of experimental animals)", "setting": "mice; 600 mg/kg oral", "value": "0/3"},
      {"measurement": "Nd/No (No. of dead animals / total No. of experimental animals)", "setting": "mice; 1,200 mg/kg oral", "value": "0/3"},
      {"measurement": "mortality", "setting": "mice; oral doses up to 1,200 mg/kg", "value": "did not cause any animal to die"}
    ]}
  ]
}
